Data taken from patent US20140148432A1, “Compounds for the Treatment of Neurological Disorders” (priority 2009, published 2014).
Like-named read-outs stand apart in the source and are kept apart here.

Assays:
[1] = biological target: GluN1/GluN2D subtype of NMDA receptors (Rattus norvegicus, UniProt Q62645); test: NMDA receptor subunit selectivity, GluN1/GluN2D in Xenopus oocytes; type: cell-based; settings: 2 min; 10 μM antagonist with 50 μM glutamate and 30 μM glycine, two min; agonists alone = 100%; read-out: GluN2D % Current Remaining
Sequence of GluN1/GluN2D subtype of NMDA receptors (Q62645 28-1323, other chains not shown): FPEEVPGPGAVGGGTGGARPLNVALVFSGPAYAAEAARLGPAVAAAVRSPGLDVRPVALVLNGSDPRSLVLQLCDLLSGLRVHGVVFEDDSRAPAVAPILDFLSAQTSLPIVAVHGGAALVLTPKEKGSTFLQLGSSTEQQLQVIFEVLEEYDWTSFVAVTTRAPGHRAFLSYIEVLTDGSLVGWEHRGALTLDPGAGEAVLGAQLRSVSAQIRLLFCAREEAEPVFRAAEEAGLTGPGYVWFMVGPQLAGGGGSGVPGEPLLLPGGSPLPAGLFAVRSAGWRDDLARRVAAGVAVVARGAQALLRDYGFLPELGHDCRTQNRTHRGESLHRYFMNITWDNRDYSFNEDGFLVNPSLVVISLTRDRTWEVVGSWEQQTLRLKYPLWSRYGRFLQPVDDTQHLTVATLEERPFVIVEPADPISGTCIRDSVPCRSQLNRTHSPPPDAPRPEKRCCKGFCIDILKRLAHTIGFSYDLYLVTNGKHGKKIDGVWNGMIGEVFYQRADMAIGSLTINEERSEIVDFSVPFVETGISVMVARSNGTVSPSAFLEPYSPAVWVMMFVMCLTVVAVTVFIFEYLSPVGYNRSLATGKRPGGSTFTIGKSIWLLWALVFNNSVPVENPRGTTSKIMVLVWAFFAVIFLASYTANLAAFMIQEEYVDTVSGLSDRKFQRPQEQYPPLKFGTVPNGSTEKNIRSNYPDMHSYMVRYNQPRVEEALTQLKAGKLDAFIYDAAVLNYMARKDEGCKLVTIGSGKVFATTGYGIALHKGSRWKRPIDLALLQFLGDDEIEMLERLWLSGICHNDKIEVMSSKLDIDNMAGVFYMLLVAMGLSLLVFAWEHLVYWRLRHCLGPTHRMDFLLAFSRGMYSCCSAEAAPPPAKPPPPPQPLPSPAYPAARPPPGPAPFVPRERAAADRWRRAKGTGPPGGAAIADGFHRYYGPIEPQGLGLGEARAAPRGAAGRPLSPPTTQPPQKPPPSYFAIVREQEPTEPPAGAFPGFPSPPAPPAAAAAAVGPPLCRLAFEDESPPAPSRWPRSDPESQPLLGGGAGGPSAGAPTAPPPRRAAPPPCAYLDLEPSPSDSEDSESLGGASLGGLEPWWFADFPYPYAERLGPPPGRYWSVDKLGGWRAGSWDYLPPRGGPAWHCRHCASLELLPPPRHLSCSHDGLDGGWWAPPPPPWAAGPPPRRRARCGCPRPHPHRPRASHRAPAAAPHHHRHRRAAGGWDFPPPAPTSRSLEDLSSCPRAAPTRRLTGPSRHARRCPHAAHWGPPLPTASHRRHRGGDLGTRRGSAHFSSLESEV
Experimental: (§1) Stage V and VI oocytes were surgically removed from the ovaries of large, well-fed and healthy Xenopus laevis anesthetized with 3-amino-benzoic acid ethyl ester (3 gm/l). Clusters of isolated oocytes were incubated with 292 U/ml Worthington (Freehold, N.J.) type IV collagenase or 1.3 mg/ml collagenase (Life Technologies, Gaithersburg, Md.; 17018-029) for 2 hr in Ca^2+-free solution comprised of (in mM) 115 NaCl, 2.5 KCl, and 10 HEPES, pH 7.5, with slow agitation to remove the follicular cell layer. Oocytes were then washed in the same solution supplemented with 1.8 mM CaCl2 and maintained in Barth's solution comprised of (in mM): 88 NaCl, 1 KCl, 2.4 NaHCO3, 10 HEPES, 0.82 MgSO4, 0.33 Ca(NO3)2, and 0.91 CaCl2 and supplemented with 100 μg/ml gentamycin, 10 μg/ml streptomycin, and 10 μg/ml penicillin. Oocytes were manually defolliculated and injected within 24 hrs of isolation with 3-5 ng of GluN1 subunit cRNA and 7-10 ng of GluN2 cRNA subunit in a 50 nl volume, and incubated in Barth's solution at 18° C. for 2-7 d. Glass injection pipettes had tip sizes ranging from 10-20 microns, and were backfilled with mineral oil. cRNA was synthesized from linearized template cDNA for rat glutamate receptor subunits according to manufacturer specifications (Ambion).
(§2) Two electrode voltage-clamp recordings were made 2-7 days post-injection. Oocytes were placed in a dual-track plexiglass recording chamber with a single perfusion line that splits in a Y-configuration to perfuse two oocytes. Dual recordings were made at room temperature (23° C.) using two Warner 00725B two-electrode voltage clamp amplifiers, arranged as recommended by the manufacturer. Glass microelectrodes (1-10 Megaohms) were filled with 300 mM KCl (voltage electrode) or 3 M KCl (current electrode). The bath clamps communicated across silver chloride wires placed into each side of the recording chamber, both of which were assumed to be at a reference potential of 0 mV. Oocytes were perfused with a solution comprised of (in mM) 90 NaCl, 1 KCl, 10 HEPES, […] and 0.5 BaCl2; pH was adjusted by addition of 1-3 M NaOH or HCl. Oocytes were recorded under voltage clamp at −40 mV. Final concentrations for glutamate and glycine were 50 μM and 30 μM, respectively. Concentration-response curves for experimental compounds were obtained by applying in successive fashion maximal glutamate/glycine, followed by glutamate/glycine plus variable concentrations of experimental compounds. Dose response curves consisting of 4 to 8 concentrations were obtained in this manner. The baseline leak current at −40 mV was measured before and after recording, and the full recording linearly corrected for any change in leak current. The level of inhibition by applied experimental compounds was expressed as a percent of the initial glutamate response, and averaged together across oocytes from multiple experiments. Results were pooled, and the average percent responses at antagonist concentrations were fit by the equation,
(§3) GluN1/GluN2A and GluN1/GluN2D subtype of NMDA receptors were expressed in Xenopus laevis as described in Example 13. Here, a 10 μM concentration of the antagonist was perfused with 50 μM glutamate and 30 μM glycine onto the oocyte for two min and the remaining current in the presence of the antagonist was compared to the maximal current obtained with 50 μM glutamate and 30 μM glycine alone (defined as 100%).

[2] = biological target: GluN1/GluN2A subtype of NMDA receptors (Rattus norvegicus, UniProt Q00959); test: NMDA receptor subunit selectivity, GluN1/GluN2A in Xenopus oocytes; type: cell-based; settings: 2 min; 10 μM antagonist with 50 μM glutamate and 30 μM glycine, two min; agonists alone = 100%; read-out: GluN2A % Current Remaining
Sequence of GluN1/GluN2A subtype of NMDA receptors (Q00959 23-1464, other chains not shown): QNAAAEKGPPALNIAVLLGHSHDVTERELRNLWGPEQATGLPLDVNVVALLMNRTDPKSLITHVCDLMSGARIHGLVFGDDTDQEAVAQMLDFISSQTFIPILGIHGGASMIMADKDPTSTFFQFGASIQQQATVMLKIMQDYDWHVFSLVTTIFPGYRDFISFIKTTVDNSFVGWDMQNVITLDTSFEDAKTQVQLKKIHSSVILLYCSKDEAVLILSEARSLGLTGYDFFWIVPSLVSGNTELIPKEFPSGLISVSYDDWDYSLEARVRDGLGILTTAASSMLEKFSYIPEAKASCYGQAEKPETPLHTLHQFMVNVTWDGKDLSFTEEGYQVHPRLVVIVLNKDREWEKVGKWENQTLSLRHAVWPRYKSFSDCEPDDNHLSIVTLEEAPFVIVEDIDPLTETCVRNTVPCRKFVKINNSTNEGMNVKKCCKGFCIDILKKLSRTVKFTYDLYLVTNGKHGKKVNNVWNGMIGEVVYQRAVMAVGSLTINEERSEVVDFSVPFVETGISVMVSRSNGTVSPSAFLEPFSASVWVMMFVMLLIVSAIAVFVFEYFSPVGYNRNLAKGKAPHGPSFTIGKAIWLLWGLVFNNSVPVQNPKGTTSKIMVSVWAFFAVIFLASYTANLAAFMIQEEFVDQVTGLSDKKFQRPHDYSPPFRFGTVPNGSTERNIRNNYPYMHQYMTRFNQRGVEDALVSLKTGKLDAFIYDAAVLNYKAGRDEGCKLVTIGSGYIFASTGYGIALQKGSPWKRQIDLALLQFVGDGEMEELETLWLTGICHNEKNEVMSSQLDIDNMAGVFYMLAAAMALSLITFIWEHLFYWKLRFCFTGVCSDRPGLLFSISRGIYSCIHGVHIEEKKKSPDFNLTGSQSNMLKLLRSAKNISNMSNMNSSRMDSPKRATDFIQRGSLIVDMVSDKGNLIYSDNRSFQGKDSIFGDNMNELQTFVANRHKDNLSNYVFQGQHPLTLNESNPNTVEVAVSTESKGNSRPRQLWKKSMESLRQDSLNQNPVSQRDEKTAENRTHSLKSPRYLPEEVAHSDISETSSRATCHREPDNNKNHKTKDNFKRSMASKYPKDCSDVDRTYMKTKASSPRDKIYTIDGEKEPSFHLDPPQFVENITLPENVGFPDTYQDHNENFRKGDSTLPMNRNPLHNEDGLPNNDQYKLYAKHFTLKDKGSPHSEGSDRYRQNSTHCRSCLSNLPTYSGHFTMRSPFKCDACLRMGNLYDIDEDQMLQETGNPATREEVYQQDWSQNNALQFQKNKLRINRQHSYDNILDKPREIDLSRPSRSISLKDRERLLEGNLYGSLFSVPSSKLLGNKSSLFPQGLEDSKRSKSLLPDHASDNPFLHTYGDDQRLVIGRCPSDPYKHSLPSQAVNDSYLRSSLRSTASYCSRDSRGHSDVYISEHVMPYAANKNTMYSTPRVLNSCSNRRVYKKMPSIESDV
Experimental: as §1, §2, §3

α1-Adrenergic = α1-Adrenergic binding, displacement of [3H]-prazosin from brain membranes; settings: 3 μM test compound, 0.25 nM [3H]-prazosin, Wistar rat brain membranes, duplicate
Experimental: (§4) Binding to the human ether-a-go-go potassium channel (hERG) expressed in HEK293 cells by displacement of 1.5 nM [3H]-astemizole. Each result represents the average of displacement binding experiments done in duplicate at 10 uM of the test compound. Percent displacement of 0.25 nM [3H]-prazosin from Wistar rat brain membranes. Each result represents the average of displacement binding experiments done in duplicate at 3 μM of the test compound.

[3] = biological target: T1, human ether-a-go-go potassium channel (hERG) expressed in HEK293 cells (Homo sapiens, UniProt Q12809); test: hERG binding, displacement of [3H]-astemizole; settings: 10 μM test compound, 1.5 nM [3H]-astemizole, duplicate
T1 construct: expressed in transfected cells; host or cells: HEK293 cells
Experimental: as §4

GluN1/GluN2B receptors [4] = biological target: GluN1/GluN2B receptors (Rattus norvegicus, UniProt P35439+Q00960); test: IC50 of GluN1/GluN2B receptors expressed in Xenopus oocytes (two electrode voltage-clamp), rat; type: cell-based; settings: pH 7.4, 50 μM glutamate, 30 μM glycine
Sequence of GluN1/GluN2B receptors (Rattus norvegicus, UniProt P35439+Q00960) (Q00960 27-1482, other chains not shown): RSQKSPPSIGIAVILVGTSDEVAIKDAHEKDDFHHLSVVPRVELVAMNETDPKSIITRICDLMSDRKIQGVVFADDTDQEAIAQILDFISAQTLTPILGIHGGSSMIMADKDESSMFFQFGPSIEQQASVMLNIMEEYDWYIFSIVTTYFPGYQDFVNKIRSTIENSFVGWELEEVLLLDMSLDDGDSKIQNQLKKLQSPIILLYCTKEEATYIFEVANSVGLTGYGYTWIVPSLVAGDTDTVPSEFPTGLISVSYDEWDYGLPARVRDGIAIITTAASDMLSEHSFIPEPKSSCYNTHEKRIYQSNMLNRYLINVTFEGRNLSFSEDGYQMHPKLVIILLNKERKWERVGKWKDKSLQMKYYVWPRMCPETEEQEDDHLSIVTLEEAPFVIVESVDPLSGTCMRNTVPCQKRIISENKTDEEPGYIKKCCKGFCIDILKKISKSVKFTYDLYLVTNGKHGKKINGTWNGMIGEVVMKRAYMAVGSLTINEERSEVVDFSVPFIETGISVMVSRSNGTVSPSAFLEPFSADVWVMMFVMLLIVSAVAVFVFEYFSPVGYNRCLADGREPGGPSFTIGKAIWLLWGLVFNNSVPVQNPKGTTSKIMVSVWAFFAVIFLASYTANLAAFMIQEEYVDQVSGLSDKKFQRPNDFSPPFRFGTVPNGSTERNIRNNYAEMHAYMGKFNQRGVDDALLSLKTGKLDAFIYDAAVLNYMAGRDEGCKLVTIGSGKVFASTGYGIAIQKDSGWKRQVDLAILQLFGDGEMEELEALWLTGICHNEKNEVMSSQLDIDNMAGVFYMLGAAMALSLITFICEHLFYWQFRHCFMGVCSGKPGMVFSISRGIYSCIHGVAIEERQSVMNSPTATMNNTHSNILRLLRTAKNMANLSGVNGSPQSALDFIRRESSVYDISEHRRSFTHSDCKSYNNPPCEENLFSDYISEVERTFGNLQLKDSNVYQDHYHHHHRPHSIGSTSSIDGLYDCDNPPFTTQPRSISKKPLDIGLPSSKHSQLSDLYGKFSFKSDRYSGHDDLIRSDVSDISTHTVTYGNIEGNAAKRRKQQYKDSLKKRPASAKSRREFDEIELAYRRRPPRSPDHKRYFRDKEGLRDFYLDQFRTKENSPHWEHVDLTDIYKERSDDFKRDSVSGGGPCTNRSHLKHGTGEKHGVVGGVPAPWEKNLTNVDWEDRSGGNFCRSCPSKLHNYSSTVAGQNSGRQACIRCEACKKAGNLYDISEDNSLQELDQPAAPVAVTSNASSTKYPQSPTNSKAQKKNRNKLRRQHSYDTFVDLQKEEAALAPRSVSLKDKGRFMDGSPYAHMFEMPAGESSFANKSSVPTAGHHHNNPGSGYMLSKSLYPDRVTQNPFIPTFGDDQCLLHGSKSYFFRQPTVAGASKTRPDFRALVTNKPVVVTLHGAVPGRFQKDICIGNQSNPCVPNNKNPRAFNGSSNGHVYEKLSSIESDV
Experimental: as §1, §2
Percent Response=(100−minimum)/(1+([conc]/IC50)^nH)+minimum
where minimum is the residual percent response in saturating concentration of the experimental compounds, IC50 is the concentration of antagonist that causes half of the achievable inhibition, and nH is a slope factor describing steepness of the inhibition curve. Minimum was constrained to be greater than or equal to 0.
Recordings were made at pH 6.9, pH 7.4, and pH 7.6. The pH Boost ratio calculated by dividing the IC50 measured at pH 7.6 by the IC50 measured at pH 6.9.

GluN1/GluN2B receptors [5] = biological target: GluN1/GluN2B receptors (Homo sapiens, UniProt Q05586+Q13224); test: IC50 of GluN1/GluN2B receptors expressed in Xenopus oocytes (two electrode voltage-clamp), human; type: cell-based; settings: for IC50: 30 μM glycine; for Human pH Boost Ratio (IC50 pH 7.6/IC50 pH 6.9): IC50 at pH 7.6 divided by IC50 at pH 6.9
[6] = biological target: GluN1/GluN2B-NMDA receptors (Homo sapiens, UniProt Q05586+Q13224); test: Noncompetitive block of GluN1/GluN2B-NMDA receptors in Xenopus oocytes; type: cell-based; settings: 0.1 μM compound 24; increasing glutamate (30 μM glycine) or increasing glycine (30 μM glutamate)
Experimental: Results shown are the mean±SEM of 7 (panel A) or 6 (panel B) oocytes.
Stage V and VI oocytes were surgically removed from the ovaries of large, well-fed and healthy Xenopus laevis anesthetized with 3-amino-benzoic acid ethyl ester (3 gm/l). Clusters of isolated oocytes were incubated with 292 U/ml Worthington (Freehold, N.J.) type IV collagenase or 1.3 mg/ml collagenase (Life Technologies, Gaithersburg, Md.; 17018-029) for 2 hr in Ca^2+-free solution comprised of (in mM) 115 NaCl, 2.5 KCl, and 10 HEPES, pH 7.5, with slow agitation to remove the follicular cell layer. Oocytes were then washed in the same solution supplemented with 1.8 mM CaCl2 and maintained in Barth's solution comprised of (in mM): 88 NaCl, 1 KCl, 2.4 NaHCO3, 10 HEPES, 0.82 MgSO4, 0.33 Ca(NO3)2, and 0.91 CaCl2 and supplemented with 100 μg/ml gentamycin, 10 μg/ml streptomycin, and 10 μg/ml penicillin. […]
Two electrode voltage-clamp recordings were made 2-7 days post-injection. […] Oocytes were recorded under voltage clamp at −40 mV. […] The baseline leak current at −40 mV was measured before and after recording, and the full recording linearly corrected for any change in leak current. The level of inhibition by applied experimental compounds was expressed as a percent of the initial glutamate response, and averaged together across oocytes from multiple experiments. […]

[7] = pH 6.9, 50 μM glutamate, read-out: Human pH 6.9 IC50
[8] = pH 7.4, 50 μM glutamate, read-out: Human pH 7.4 IC50

| Compound | remaining activity at 10 µM [1] [%] | remaining activity at 10 µM [2] [%] | α1-Adrenergic binding % Displacement @ 3 μM (α1-Adrenergic) [%] | hERG Binding % Displacement @ 10 μM [3] [%] | IC50 (GluN1/GluN2B receptors [4]) [nM] | IC50 (GluN1/GluN2B receptors [5]; [7]) [nM] | IC50 (GluN1/GluN2B receptors [5]; [8]) [nM] | Human pH Boost Ratio (IC50 pH 7.6/IC50 pH 6.9) (GluN1/GluN2B receptors [5]) | Block on increasing glutamate and increasing glycine [6] |
| --- | --- | --- | --- | --- | --- | --- | --- | --- | --- |
| O=C1CCc2cc(OCC3CN(C(=O)n4ccnc4)C3)ccc2N1 [Compound 26, 6-((1-(1H-imidazole-1-carbonyl)azetidin-3-yl)methoxy)-3,4-dihydroquinolin-2(1H)-one] | 94.9 | 102 | <1 | <1 | 6100 | > 30000 | > 10000 |  |  |
| O=C(Nc1ccc(Cl)cc1)N1CCC(COc2ccc(O)cc2)CC1 [Compound 33] | 104 | 111 |  |  |  | 740 |  | 1.8 |  |
| O=C1CCc2cc(OCC3CCN(C(=O)Cc4ccc(Cl)cc4)CC3)ccc2N1 [Compound 15, 6-((1-(2-(4-chlorophenyl)acetyl)piperidin-4-yl)methoxy)-3,4-dihydroquinolin-2(1H)-one] | 101 | 96.3 | 13 | 18 | 3200 | 490 | 2000 | 8.6 |  |
| O=C1CCc2cc(OCC3CCN(C(=O)/C=C/c4ccc(Cl)c(Cl)c4)CC3)ccc2N1 [Compound 6, (E)-6-((1-(3-(3,4-dichlorophenyl)acryloyl)piperidin-4-yl)methoxy)-3,4-dihydroquinolin-2(1H)-one] | 101 | 103 | 28 | 85 | 1270 | 886 | 1640 | 1.1 |  |
| O=C1CCc2cc(OCC3CCN(C(=O)Nc4ccc(C(F)(F)F)cc4)CC3)ccc2N1 [Compound 17, 4-(((2-oxo-1,2,3,4-tetrahydroquinolin-6-yl)oxy)methyl)-N-(4-(trifluoromethyl)phenyl)piperidine-1-carboxamide] | 93.9 | 98.7 | 7 | 75 | 359 | 237 | 517 | 2.0 |  |
| O=C1CCc2cc(OCC3CN(C(=O)Nc4ccc(C(F)(F)F)cc4)C3)ccc2N1 [Compound 24, 3-(((2-oxo-1,2,3,4-tetrahydroquinolin-6-yl)oxy)methyl)-N-(4-(trifluoromethyl)phenyl)azetidine-1-carboxamide] | 84.5 | 94.2 | 12 | 68 | 54 | 27 | 74 | 3.6 | cannot overcome the block |
| O=C1CCc2cc(OCC3CN(C(=O)NCc4ccc(Cl)cc4)C3)ccc2N1 [Compound 28, N-(4-chlorobenzyl)-3-(((2-oxo-1,2,3,4-tetrahydroquinolin-6-yl)oxy)methyl)azetidine-1-carboxamide] | 94.5 | 102 | 12 | 27 | 4900 | 2300 | 3500 | 3.5 |  |
| O=C1CCc2cc(OCC3CCN(C(=O)Nc4ccc(Cl)cc4)CC3)ccc2N1 [Compound 13, N-(4-chlorophenyl)-4-(((2-oxo-1,2,3,4-tetrahydroquinolin-6-yl)oxy)methyl)piperidine-1-carboxamide] | 106 | 105 | 16 | 37 | 339 | 283 | 468 | 2.0 |  |
| O=C1CCc2cc(OCC3CN(C(=O)Nc4ccc(Cl)cc4)C3)ccc2N1 [Compound 21, N-(4-chlorophenyl)-3-(((2-oxo-1,2,3,4-tetrahydroquinolin-6-yl)oxy)methyl)azetidine-1-carboxamide] | 89.2 | 102 | 2 | 25 | 166 | 103 | 170 | 1.7 |  |
| O=C1CCc2cc(OCC3CN(C(=O)Nc4ccc(Cl)c(Cl)c4)C3)ccc2N1 [Compound 23, N-(3,4-dichlorophenyl)-3-(((2-oxo-1,2,3,4-tetrahydroquinolin-6-yl)oxy)methyl)azetidine-1-carboxamide] | 87.6 | 94.6 | 25 | 60 | 53 | 19 | 41 | 3.0 |  |
| O=C1CCc2cc(OCC3CCN(C(=O)OCc4ccc(Cl)cc4)CC3)ccc2N1 [Compound 11, 4-chlorobenzyl 4-(((2-oxo-1,2,3,4-tetrahydroquinolin-6-yl)oxy)methyl)piperidine-1-carboxylate] | 104 | 111 | 16 | 56 | 837 | 589 | 868 | 1.4 |  |
| O=C(Nc1ccc(Cl)c(Cl)c1)N1CCC(COc2ccc(O)cc2)CC1 [Compound 35, N-(3,4-dichlorophenyl)-4-((4-hydroxyphenoxy)methyl)-piperidine-1-carboxamide] | 104 | 104 |  |  |  | 764 |  | 1.2 |  |
